Reference: paper PMC5768343, “A natural inhibitor of kidney-type glutaminase: a withanolide from Physalis pubescens with potent anti-tumor activity” (Oncotarget, 2017)

Tests used:
[1] = target: T1, intracellular KGA (Homo sapiens, UniProt O94925); assay: Cellular thermal shift assay (CETSA) in intact SW1990 cells; type: cell-based; settings: 10 μM, 4 hours, 48°C without compound
T1 construct: endogenous in cells; host or cells: SW1990
T1 sequence (O94925 55-669): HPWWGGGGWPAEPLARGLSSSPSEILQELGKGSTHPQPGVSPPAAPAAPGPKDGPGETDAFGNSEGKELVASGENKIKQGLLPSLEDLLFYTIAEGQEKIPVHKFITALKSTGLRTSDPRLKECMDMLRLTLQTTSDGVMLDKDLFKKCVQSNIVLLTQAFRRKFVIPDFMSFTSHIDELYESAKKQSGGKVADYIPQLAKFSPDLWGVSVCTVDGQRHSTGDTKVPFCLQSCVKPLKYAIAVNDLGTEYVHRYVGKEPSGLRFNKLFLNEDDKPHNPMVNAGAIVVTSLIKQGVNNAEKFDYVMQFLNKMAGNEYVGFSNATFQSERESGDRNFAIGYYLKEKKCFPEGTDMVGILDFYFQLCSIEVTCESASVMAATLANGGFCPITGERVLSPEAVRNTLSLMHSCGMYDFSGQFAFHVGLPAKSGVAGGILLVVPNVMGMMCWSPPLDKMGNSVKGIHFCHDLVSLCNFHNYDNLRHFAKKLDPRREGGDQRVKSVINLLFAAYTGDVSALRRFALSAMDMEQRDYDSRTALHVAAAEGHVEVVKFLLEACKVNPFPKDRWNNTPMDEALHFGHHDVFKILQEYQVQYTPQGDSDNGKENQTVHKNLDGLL
Description: To further investigate the interaction of the compound with KGA, microscale thermophoresis method (MST) was used to assay the binding affinity between physapubescin K and KGA. This technology can quantify protein-protein or protein-small molecule interactions with high sensitivity through detecting fluorescent changes of molecules during thermophoresis. […] However, it was of vital importance to verify whether it could bind with the intracellular KGA. The cellular thermal shift assay (CETSA), which based on the biophysical principle of ligand-induced thermal stabilization of target protein [25], was thus conducted to investigate its affinity with intracellular KGA. […] As shown in Figure 4B and 4C, physapubescin K increased the thermal stability of KGA in intact cells from tolerate temperature of 48°C to temperature of 50°C.
The ability of compounds to interact with, and thereby stabilize the target in intact cells, was analyzed essentially as described by Alshareef A et al.. Briefly, cells cultured in 10-cm tissue culture dishes at about 90% confluence were treated with media containing DMSO or 10 μM physapubescin K for 4 hours. After treatment, cells were detached with cell scraper, collected by centrifugation and subsequently resuspended in PBS. The cell suspension was aliquoted into seven PCR tubes and heated for 3 minutes to 40, 42, 44, 46, 48, 50 or 52°C. […]

[2] = system: human fibrosarcoma cells (HT1080); assay: CCK8 cytotoxicity assay, HT1080; type: cell-based; settings: HT-1080, CCK8, 48 h
Description: The SW1990, HT1080, and A375-S2 human tumor cell lines were obtained from ATCC (Manassas, VA, USA). […] SW1990, HT1080, and LO2 cells were cultured in DMEM medium with 10% fetal bovine serum (FBS). All of these cells were cultured at 37°C in a humidified atmosphere with 5% CO2. To estimate cell viability, cells (5000/well) were separately seeded in 96-well plates for 24 h at 37°C in a 5% CO2 incubator. […] All the experiments were performed in triplicate, and the mean absorbance values were calculated. The IC50 values of the compounds were derived from the mean OD values of the triplicate tests versus the drug concentration curves.

For `CO[C@H]1O[C@@H]([C@@H](C)[C@H]2C[C@H](OC(C)=O)[C@H]3[C@@H]4C[C@H]5O[C@]56[C@@H](O)C=CC(=O)[C@]6(C)[C@H]4CC[C@@]32C)C[C@]2(C)O[C@]12C` [physapubescin K], the “thermal stability of KGA, tolerate temperature” value [1] was 50 °C and the IC50 [2] was 2850 ± 600 nM.
